Measurements reported in patent US8318781B2, “G-protein-conjugated receptor agonist” (Japan Science and Technology Agency, priority 2007, dated 2012).
Read-outs that look alike come from different tables or passages of the source.

Key:
[1] = system: GLP-1 (Glucagon-Like Peptide) release; experiment: GLP-1 (glucagon-like peptide) release test in mice; assay type: in vivo; conditions: C57BL/6J mice; for Average GLP-1 concentration: given into the colon by catheter, portal vein blood after 15 minutes, ELISA, NCG21 suspension in PEG at 100 mmol/g body weight; for increase of GLP-1 concentration in the portal blood relative to control DMSO: portal blood 15 minutes after colonic administration
Description: C57BL/6J mice (8 weeks old) were anesthetized with Nembutal (pentobarbital sodium) (60 mg/kg body weight), a catheter was inserted into the colon through the celiotomy, and the solution of the test compound was administered through the catheter (NCG21 as a suspension in PEG at 100 mmol/g body weight, at a rate of 100 μl/min). After 15 minutes, a blood sample was taken from the portal vein, centrifuged at 8000 rpm for 10 minutes, and the supernatant was stored at −80° C. GLP-1 (ng/mL) was determined using ELISA kit (Wako Pure Chemical Industries, Ltd.) within the next day. Each group consists of 12 mice, except that 11 mice were used for NCG21.

[2] = target: T1, human GPR40 (hGPR40) (Homo sapiens, UniProt O14842); experiment: Determination of intracellular Ca2+ concentration (FLIPR), cell line TXGPR40; assay type: cell-based
T1 construct: expressed in transfected cells; doxycycline-inducible expression vector

[3] = target: T2, human GPR120 (hGPR120) (Homo sapiens, UniProt Q5NUL3); experiment: Determination of intracellular Ca2+ concentration (FLIPR), cell line TXGPR120; assay type: cell-based; conditions: TXGPR120 cells, maximum fluorescence intensity vs ligand concentration; read-out: [Ca^2+]/GPR120 pEC50 (converted)
T2 construct: expressed in transfected cells; doxycycline-inducible expression vector
T2 sequence (Q5NUL3 1-361): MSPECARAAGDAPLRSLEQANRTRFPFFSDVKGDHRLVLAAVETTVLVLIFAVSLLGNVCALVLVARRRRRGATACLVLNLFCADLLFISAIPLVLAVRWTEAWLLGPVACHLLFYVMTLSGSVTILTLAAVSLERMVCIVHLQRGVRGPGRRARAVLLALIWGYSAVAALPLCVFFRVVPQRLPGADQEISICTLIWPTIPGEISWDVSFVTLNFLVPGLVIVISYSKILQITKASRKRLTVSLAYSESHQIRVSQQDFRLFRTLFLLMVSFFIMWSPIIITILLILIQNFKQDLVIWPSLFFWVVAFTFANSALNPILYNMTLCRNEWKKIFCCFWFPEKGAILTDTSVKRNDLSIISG

[4] = target: T2, human GPR120 (hGPR120); experiment: Determination of intracellular Ca2+ concentration (FLIPR), cell line GPR120/Flp-in; assay type: cell-based

T1 sequence (O14842 whole entry): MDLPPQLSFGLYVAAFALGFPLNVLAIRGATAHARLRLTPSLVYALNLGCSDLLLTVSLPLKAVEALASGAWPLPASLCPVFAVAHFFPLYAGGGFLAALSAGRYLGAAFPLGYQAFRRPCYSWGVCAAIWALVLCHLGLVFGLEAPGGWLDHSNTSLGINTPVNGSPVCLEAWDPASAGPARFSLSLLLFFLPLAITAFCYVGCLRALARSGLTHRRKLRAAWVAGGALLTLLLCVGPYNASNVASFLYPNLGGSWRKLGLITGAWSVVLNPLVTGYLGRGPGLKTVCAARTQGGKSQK

EC50 ([2]; TXGPR40 cells, maximum fluorescence intensity vs ligand concentration, read-out: [Ca^2+]/GPR40 pEC50 (converted))	EC50 [3]	EC50 ([4]; GPR120/Flp-in cells, maximum fluorescence intensity vs ligand concentration, read-out: [Ca^2+]/GPR120/Flp-In pEC50 (converted))	melting point	EC50 [2]	EC50 [4]	Compound	Average GLP-1 concentration [1]	increase of GLP-1 concentration in the portal blood relative to control DMSO [1]
–	–	–	–	–	–	CC/C=C\C/C=C\C/C=C\CCCCCCCC(=O)O [LA, cis-α-linolenic acid, reference compound]	3.87 ng/mL	2.4 times
18.6 µM	2.88 µM	1.26 µM	98 to 99 °C	–	–	O=C(O)CCCc1ccc(OCCN(c2ccccc2)c2ccccn2)cc1 [NCG21]	4.02 ng/mL	2.5 times
–	–	–	74 to 75 °C	7.76 µM	9.12 µM	O=C(O)CCCCc1ccc(OCCN(c2ccccc2)c2ccccn2)cc1 [NCG23, 5-{4-[2-(2-phenylpyridinylamino)ethoxy]phenyl}pentanoic acid]	–	–
